Reference: paper PMC7891399 (Journal of Clinical Pharmacology, 2020)
Like-named read-outs stand apart in the source and are kept apart here. Marks after values point to notes of the source that are not given here.

Columns and labels:
[1] = healthy subjects, fed state; ref registration package; cited from earlier work
[2] = assay type: in vivo, women
[3] = assay type: in vivo, women; details: for AUC(0-t): female, human, plasma; for AUC0–24h Ratio Third Trimester/Postpartum GMR (90%CI) / Ctrough Ratio Third Trimester/Postpartum GMR (90%CI): paired data only
[4] = Combined PANNA and iTAP comparison of pregnancy effect on TFV exposure; assay type: in vivo; details: all groups of women (HIV with r/PI, HIV without r/PI, HBV monoinfection)
[5] = women with HBV, TDF monotherapy, paired data only

For `C[C@H](Cn1cnc2c(N)ncnc21)OCP(=O)(O)O` [TFV, tenofovir], the “mean AUC0–24h” value [1] is listed as 2460 ± 830 ng·h/mL, the AUC(0-t) ([2]; female, human, plasma, po) is listed as 2350 ng·h/mL and the “Ctrough decrease by pregnancy, on average” value (“Ctrough decrease” for short) ([2]; women with HBV) is listed as 31%. The “AUC0–24h lower during the third trimester compared to 1 month postpartum” value ([2]; women with HBV receiving TDF monotherapy, intraindividual) was 21%, the “Ctrough Postpartum GM (95%CI)” value ([2]; women with HBV, TDF monotherapy (n = 137), 1 month postpartum) was 0.058 (0.055–0.061) µg/mL and the “Ctrough Third Trimester GM (95%CI)” value ([2]; women with HBV, TDF monotherapy (n = 137), third trimester (32 weeks)) was 0.039 (0.038–0.042) µg/mL. For the same molecule, the “AUC0–24h Ratio Third Trimester/Postpartum GMR (90%CI)” value [2, 5] was 0.79 (0.78–0.80), the “Ctrough Ratio Third Trimester/Postpartum GMR (90%CI)” value [2, 5] was 0.69 (0.68–0.71) and the AUC(0-t) ([3]; oral) was 1840 ng·h/mL. For the same molecule, the AUC(0-t) ([3]; oral, AUC0–24h Postpartum GM (95%CI), women with HIV, all patients (n = 59), postpartum) was 2840 ng·h/mL, the AUC(0-t) ([3]; po) was 1860 ng·h/mL and the “Ctrough Postpartum GM (95%CI)” value ([3]; women with HIV on non-r/PI (n = 27), postpartum) was 0.056 (0.050–0.064) µg/mL. For the same molecule, the “Ctrough Third Trimester GM (95%CI)” value ([3]; women with HIV on non-r/PI (n = 27)) was 0.038 (0.033–0.043) µg/mL, the “AUC0–24h Ratio Third Trimester/Postpartum GMR (90%CI)” value ([3]; women with HIV on non-r/PI) was 0.74 (0.68–0.82) and the “Ctrough Ratio Third Trimester/Postpartum GMR (90%CI)” value ([3]; women with HIV on non-r/PI) was 0.68 (0.62–0.75). The “Ctrough decrease” value ([3]; women with HIV on non-r/PI-based regimens) was 32%, the “AUC0–24h lower during the third trimester compared to 1 month postpartum” value ([3]; women with HIV on non-r/PI-based regimens, intraindividual) was 26% and the “Ctrough Postpartum GM (95%CI)” value ([3]; women with HIV on r/PI (n = 32), postpartum) was 0.063 (0.053–0.075) µg/mL. For the same molecule, the “Ctrough Third Trimester GM (95%CI)” value ([3]; women with HIV on r/PI (n = 32)) was 0.048 (0.043–0.054) ^b , ^c µg/mL, the “AUC0–24h Ratio Third Trimester/Postpartum GMR (90%CI)” value ([3]; women with HIV on r/PI) was 0.76 (0.69–0.83) and the “Ctrough Ratio Third Trimester/Postpartum GMR (90%CI)” value ([3]; women with HIV on r/PI) was 0.81 (0.69–0.94). The “Ctrough decrease” value ([3]; women with HIV on r/PI-based regimens) was 19%, the “Ctrough Postpartum GM (95%CI)” value ([3]; women with HIV, all patients (n = 59), postpartum) was 0.059 (0.053–0.066) µg/mL and the “Ctrough Third Trimester GM (95%CI)” value ([3]; women with HIV, all patients (n = 59)) was 0.043 (0.039–0.047) µg/mL. For the same molecule, the “AUC0–24h Ratio Third Trimester/Postpartum GMR (90%CI)” value ([3]; women with HIV, all patients) was 0.75 (0.70–0.80), the “Ctrough Ratio Third Trimester/Postpartum GMR (90%CI)” value ([3]; women with HIV, all patients) was 0.74 (0.67–0.81) and the “TFV exposure decrease during the third trimester of pregnancy” value [4] was “approximately 25%”.
